According to article PMC9034021 (RSC Advances, 2021):

How the values were obtained:
[1] = molecular target: BuChE (from equine serum) (Equus caballus, UniProt P81908); assay: BuChE inhibitory activity, Ellman's method with slight modification; assay type: biochemical
[2] = molecular target: AChE (from Electrophorus electricus) (Electrophorus electricus, UniProt O42275); assay: biochemical; assay type: biochemical
Sequence of AChE (from Electrophorus electricus) (O42275 24-633): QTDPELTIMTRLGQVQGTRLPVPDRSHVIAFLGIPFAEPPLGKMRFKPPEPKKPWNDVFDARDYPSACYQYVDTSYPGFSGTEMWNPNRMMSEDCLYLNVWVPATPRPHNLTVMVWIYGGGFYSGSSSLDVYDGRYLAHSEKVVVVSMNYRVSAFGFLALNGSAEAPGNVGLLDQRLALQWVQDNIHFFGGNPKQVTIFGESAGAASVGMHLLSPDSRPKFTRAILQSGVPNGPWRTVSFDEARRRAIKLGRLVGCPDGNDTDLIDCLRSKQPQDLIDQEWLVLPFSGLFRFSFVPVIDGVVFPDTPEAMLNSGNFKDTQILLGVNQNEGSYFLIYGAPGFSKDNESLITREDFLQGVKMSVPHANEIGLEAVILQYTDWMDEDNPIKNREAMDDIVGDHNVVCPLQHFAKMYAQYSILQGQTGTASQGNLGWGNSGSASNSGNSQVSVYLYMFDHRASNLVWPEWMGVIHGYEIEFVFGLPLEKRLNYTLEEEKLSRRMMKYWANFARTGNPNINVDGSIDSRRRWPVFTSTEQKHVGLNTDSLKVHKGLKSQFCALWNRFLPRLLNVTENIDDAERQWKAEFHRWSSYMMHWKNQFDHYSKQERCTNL

Sequence of BuChE (from equine serum) (P81908 whole entry): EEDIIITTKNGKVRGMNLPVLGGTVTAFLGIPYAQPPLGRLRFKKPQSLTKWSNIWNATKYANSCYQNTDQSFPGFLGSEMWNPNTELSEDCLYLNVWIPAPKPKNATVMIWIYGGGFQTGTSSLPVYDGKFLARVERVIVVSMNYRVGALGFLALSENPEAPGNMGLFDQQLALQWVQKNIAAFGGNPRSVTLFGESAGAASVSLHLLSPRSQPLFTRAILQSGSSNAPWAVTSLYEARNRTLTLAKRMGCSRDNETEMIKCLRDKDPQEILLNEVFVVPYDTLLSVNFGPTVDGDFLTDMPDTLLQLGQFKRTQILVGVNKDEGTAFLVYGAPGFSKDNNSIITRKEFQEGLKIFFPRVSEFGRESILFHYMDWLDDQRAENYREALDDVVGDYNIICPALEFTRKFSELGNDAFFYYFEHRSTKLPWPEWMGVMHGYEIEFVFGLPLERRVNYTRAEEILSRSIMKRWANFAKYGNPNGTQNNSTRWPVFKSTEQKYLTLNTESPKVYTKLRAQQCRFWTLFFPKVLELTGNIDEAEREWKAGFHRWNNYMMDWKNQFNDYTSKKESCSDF

| Compound | IC50 [1] | IC50 [2] | also measured |
| --- | --- | --- | --- |
| COc1cc2c(cc1O)[C@@H]1Cc3ccc(O)c(OC)c3CN1CC2 [Compound 12, stepholidine] | 221.2 ± 1.62 µM |  |  |
| COc1cc2c(cc1OC)-c1c3c(cc4ccnc(c14)C2=O)OCO3 [Compound 35, dicentrinone] |  | 265.8 ± 0.8 µM |  |
| COc1cc2cc3c4c(cc5c(c4c2cc1OC)OCO5)CCN3C [Compound 42, dehydrodicentrine] |  |  | anti-BuChE activity, fold increase of the dehydroaporphine ([1]; relative to the aporphine group, comparator not named): 4.7 fold |
| COc1ccc2c(c1OC)CC1c3c(cc4c(c3-2)OCO4)CCN1C (stereo not shown) [Compound 25, crebanine] | 10.5 ± 0.27 µM | 17.4 ± 0.22 µM | anti-AChE activity, fold less active than the 9,10-dimethoxy analogue 26 [2]: 2.8 fold; anti-BuChE activity, fold higher than that of 26 [1]: 2.5 fold |
| COc1cc2c(cc1O)CC[n+]1cc3c(OC)c(OC)ccc3cc1-2 [Compound 18, jatrorrhizine] | 31.46 ± 0.2 µM | 12.3 ± 0.44 µM |  |
| COc1cc2c(cc1OC)[C@@H]1Cc3ccc(OC)c(OC)c3CN1CC2 [Compound 14, tetrahydropalmatine] | 65.3 ± 0.8 µM |  |  |
| COc1cc2c(cc1O)C(Cc1ccc(O)cc1)NCC2 (stereo not shown) [Compound 44, coclaurine] | 20.5 ± 0.42 µM | 40.9 ± 0.67 µM |  |
| COC1=C[C@]23CCN(C)[C@H](Cc4ccc(OC)c(O)c42)C3=CC1=O [Compound 45, salutaridine] |  | 7.49 ± 0.66 µM |  |
| CN1CCc2cc3c(c4c2C1Cc1ccccc1-4)OCO3 (stereo not shown) [Compound 22, roemerine] | 2.85 ± 0.08 µM | 8.32 ± 0.12 µM | BuChE inhibition, fold more active than galanthamine [1]: approximately 1.3 fold |
